Experimental data: US9822130B2, “Triazolo-pyrazinyl derivatives useful as soluble guanylate cyclase activators” (Merck Sharp & Dohme Corp., priority 2014, dated 2017)

target: T1, sGC α1/β1 heterodimer stably expressed in CHO-K1 cell line (CHO-K1/sGC) (Homo sapiens, UniProt Q02108+Q02153); assay: Cell-based sGC Functional Assay (CASA Assay), cGMP generation; settings: CHO-K1/sGC cells, 1 hr at 37° C., cGMP by HTRF, 4P fit; presence or absence of 1 μM DETA-NO not given; read-out: IP (nM) (inflection point)
T1 construct: expressed in transfected cells
T1 sequence (Q02108 1-690): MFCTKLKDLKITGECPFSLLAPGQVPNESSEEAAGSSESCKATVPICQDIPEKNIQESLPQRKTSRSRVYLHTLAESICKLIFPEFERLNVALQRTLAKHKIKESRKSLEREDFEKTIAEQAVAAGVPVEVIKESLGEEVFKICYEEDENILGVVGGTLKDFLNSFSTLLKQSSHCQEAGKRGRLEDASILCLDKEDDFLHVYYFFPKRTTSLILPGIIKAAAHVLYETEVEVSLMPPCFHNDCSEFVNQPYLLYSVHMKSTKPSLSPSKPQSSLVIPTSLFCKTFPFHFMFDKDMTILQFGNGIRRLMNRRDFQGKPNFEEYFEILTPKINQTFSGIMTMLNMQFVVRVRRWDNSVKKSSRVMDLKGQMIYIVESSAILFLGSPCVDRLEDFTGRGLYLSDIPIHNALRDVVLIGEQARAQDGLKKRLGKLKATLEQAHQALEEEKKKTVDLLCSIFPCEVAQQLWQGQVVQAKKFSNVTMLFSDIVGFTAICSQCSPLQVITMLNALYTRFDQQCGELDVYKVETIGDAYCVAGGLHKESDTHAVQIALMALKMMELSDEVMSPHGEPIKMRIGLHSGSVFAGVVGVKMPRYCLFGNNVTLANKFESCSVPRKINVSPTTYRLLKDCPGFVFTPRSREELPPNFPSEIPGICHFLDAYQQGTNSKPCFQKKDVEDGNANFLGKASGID
T1 sequence (Q02153 1-619): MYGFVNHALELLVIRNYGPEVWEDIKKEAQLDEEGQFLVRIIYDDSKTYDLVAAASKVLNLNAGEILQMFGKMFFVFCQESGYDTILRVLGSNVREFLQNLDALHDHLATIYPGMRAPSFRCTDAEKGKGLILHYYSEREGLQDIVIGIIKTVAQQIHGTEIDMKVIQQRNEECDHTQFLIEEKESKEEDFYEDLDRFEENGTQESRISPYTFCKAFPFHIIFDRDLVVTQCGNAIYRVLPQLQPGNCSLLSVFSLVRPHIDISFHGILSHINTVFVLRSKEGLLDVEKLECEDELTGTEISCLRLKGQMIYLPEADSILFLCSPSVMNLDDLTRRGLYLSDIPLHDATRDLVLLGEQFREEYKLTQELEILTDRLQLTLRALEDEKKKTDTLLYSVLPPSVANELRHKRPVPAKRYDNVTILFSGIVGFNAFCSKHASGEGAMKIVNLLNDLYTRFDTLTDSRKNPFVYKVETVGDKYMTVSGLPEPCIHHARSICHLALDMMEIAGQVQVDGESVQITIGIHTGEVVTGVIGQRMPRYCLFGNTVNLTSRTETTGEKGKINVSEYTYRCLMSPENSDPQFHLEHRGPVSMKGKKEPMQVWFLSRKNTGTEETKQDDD
Summary of the method: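 Readout is HTRF cGMP in lysates, normalised to the maximal response of reference sGC activator Compound A (100%), with a 4P fit giving IP and fold induction. Cells were CHO-K1/sGC (human α1/β1) in EBSS buffer with IBMX, incubated 1 hr at 37° C with compound. Run with and without 1 μM DETA-NO; final DMSO 2.5%.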

Row | EC50 [nM] | Compound
1 | 134 | C[C@@]1(c2ccc(F)cc2)C(=O)Nc2nc(-c3cn4ncnc4c(CCC(F)(F)C(F)(F)F)n3)nc(O)c21 [Example 119A, (S)-5-(4-fluorophenyl)-4-hydroxy-5-methyl-2-(8-(3,3,4,4,4-pentafluorobutyl)-[1,2,4]triazolo[1,5-a]pyrazin-6-yl)-5,7-dihydro-6H-pyrrolo[2,3-d]pyrimidin-6-one]
2 | 318 | CCCc1nc(-c2nc(N)c3c(n2)NC(=O)C3(C)c2ccc(F)cn2)cn2ncnc12 (stereo not shown) [Example 54B, 4-amino-5-(5-fluoropyridin-2-yl)-5-methyl-2-(8-propyl-[1,2,4]triazolo[1,5-a]pyrazin-6-yl)-5H-pyrrolo[2,3-d]pyrimidin-6(7H)-one]
3 | 27.8 | CC1(c2ccc(Cl)cn2)C(=O)Nc2nc(-c3cn4ncnc4c(CCCC(F)(F)F)n3)nc(N)c21 (stereo not shown) [Example 26A, 4-amino-5-(5-chloropyridin-2-yl)-5-methyl-2-(8-(4,4,4-trifluorobutyl)-[1,2,4]triazolo[1,5-a]pyrazin-6-yl)-5H-pyrrolo[2,3-d]pyriniidin-6(7H)-one]
4 | 257 | CC1(c2cn(C3CC3)nn2)C(=O)Nc2nc(-c3cn4ncnc4c(CCC(F)(F)C(F)(F)F)n3)nc(N)c21 (stereo not shown) [Example 95B, 4-Amino-5-(1-cyclopropyl-1H-1,2,3-triazol-4-yl)-5-methyl-2-(8-(3,3,4,4,4-pentafluorobutyl)-[1,2,4]triazolo[1,5-a]pyrazin-6-yl)-5H-pyrrolo[2,3-d]pyrimidin-6(7H)-one]
5 | 183 | O=C1Nc2nc(-c3cn4ncnc4c(CCCC(F)(F)F)n3)nc(O)c2C1(c1ccc(F)c(F)c1)C1CC1 (stereo not shown) [Example 141A, 5-cyclopropyl-5-(3,4-difluorophenyl)-4-hydroxy-2-(8-(4,4,4-trifluorobutyl)-[1,2,4]triazolo[1,5-a]pyrazin-6-yl)-5H-pyrrolo[2,3-d]pyrimidin-6(7H)-one]
6 | 111 | CC1(c2ccc(F)c(F)c2)C(=O)Nc2nc(-c3cn4ncnc4c(CCC(F)(F)C(F)(F)F)n3)nc(O)c21 (stereo not shown) [Example 169B, 5-(3,4-Difluorophenyl)-4-hydroxy-5-methyl-2-(8-(3,3,4,4,4-pentafluorobutyl)-[1,2,4]triazolo[1,5-a]pyrazin-6-yl)-5,7-dihydro-6H-pyrrolo[2,3-d]pyrimidin-6-one]
7 | 21.9 | CCCCc1nc(-c2nc(N)c3c(n2)NC(=O)C3(C)c2ccc(Cl)cc2)cn2ncnc12 (stereo not shown) [Example 63A, 4-amino-2-(8-butyl-[1,2,4]triazolo[1,5-a]pyrazin-6-yl)-5-(4-chlorophenyl)-5-methyl-5H-pyrrolo[2,3-d]pyrimidin-6(7H)-one]
8 | 310 | CC1(c2ccc(Cl)c(F)c2)C(=O)Nc2nc(-c3cn4ncnc4c(CCC(F)(F)F)n3)nc(O)c21 (stereo not shown) [Example 153B, 5-(4-chloro-3-fluorophenyl)-4-hydroxy-5-methyl-2-(8-(3,3,3-trifluoropropyl)-[1,2,4]triazolo[1,5-a]pyrazin-6-yl)-5H-pyrrolo[2,3-d]pyrimidin-6(7H)-one]
9 | 14.7 | Cc1ccc(C2(C)C(=O)Nc3nc(-c4cn5ncnc5c(CCC(F)(F)C(F)(F)F)n4)nc(N)c32)nc1 (stereo not shown) [Example 19B, 4-amino-5-methyl-5-(5-methylpyridin-2-yl)-2-(8-(3,3,4,4,4-pentafluorobutyl)-[1,2,4]triazolo[1,5-a]pynizin-6-yl)-5H-pyrrolo[2,3-d]pyrimidin-6(7H)-one]
10 | 43.1 | Cc1cnc(C2(C3CC3)C(=O)Nc3nc(-c4cn5ncnc5c(CCC(F)(F)C(F)(F)F)n4)nc(N)c32)cn1 (racemic) [Example 21B, 4-amino-5-cyclopropyl-5-(5-methylpyrazin-2-yl)-2-(8-(3,3,4,4,4-pentafluorobutyl)-[1,2,4]triazolo[1,5-a]pyrazin-6-yl)-5H-pyrrolo[2,3-d]pyrimidin-6(7H)-one]
11 | 18.7 | CCCCc1nc(-c2nc(N)c3c(n2)NC(=O)C3(c2ccc(Cl)cn2)C2CC2)cn2ncnc12 (stereo not shown) [Example 68A, 4-amino-2-(8-butyl-[1,2,4]triazolo[1,5-a]pyrazin-6-yl)-5-(5-chloropyridin-2-yl)-5-cyclopropyl-5H-pyrrolo[2,3-d]pyrimidin-6(7H)-one]
12 | 574 | CC(C)Cc1nc(-c2ncc3c(n2)NC(=O)[C@@]3(C)c2ccc(F)cc2)cn2ncnc12 [Example 173A, (S)-5-(4-fluorophenyl)-2-(8-isobutyl-[1,2,4]triazolo[1,5-a]pyrazin-6-yl)-5-methyl-5,7-dihydro-6H-pyrrolo[2,3-d]pyrimidin-6-one]
13 | 128 | CC1(c2ccccc2)C(=O)Nc2nc(-c3cn4ncnc4c(CCC(F)(F)C(F)(F)F)n3)nc(O)c21 (stereo not shown) [Example 128B, 4-hydroxy-5-methyl-2-(8-(3,3,4,4,4-pentafluorobutyl)-[1,2,4]triazolo[1,5-a]pyrazin-6-yl)-5-phenyl-5H-pyrrolo[2,3-d]pyrimidin-6(7H)-one]
14 | 439 | CCCc1nc(-c2nc(N)c3c(n2)NC(=O)C3(C)c2ccc(Cl)cc2)cn2nc(C)nc12 (stereo not shown) [Example 93A, 4-amino-5-(4-chlorophenyl)-5-methyl-2-(2-methyl-8-propyl-[1,2,4]triazolo[1,5-a]pyrazin-6-yl)-5H-pyrrolo[2,3-d]pyrimidin-6(7H)-one]
15 | 303 | CCCCc1nc(-c2nc(O)c3c(n2)NC(=O)C3(C)c2ccc(C)cn2)cn2ncnc12 (stereo not shown) [Example 161B, 2-(8-butyl-[1,2,4]triazolo[1,5-a]pyrazin-6-yl)-4-hydroxy-5-methyl-5-(5-methylpyridin-2-yl)-5H-pyrrolo[2,3-d]pyrimidin-6(7H)-one]
16 | 63 | CC1(c2cncc(F)c2)C(=O)Nc2nc(-c3cn4ncnc4c(CCC(F)(F)C(F)(F)F)n3)nc(N)c21 (stereo not shown) [Example 9A, 4-amino-5-(5-fluoropyridin-3-yl)-5-methyl-2-(8-(3,3,4,4,4-pentafluorobutyl)-[1,2,4]triazolo[1,5-a]pyrazin-6-yl)-5H-pyrrolo[2,3-d]pyrimidin-6(7H)-one]
17 | 84.1 | N#Cc1ccc(C2(C3CC3)C(=O)Nc3nc(-c4cn5ncnc5c(CCC(F)(F)C(F)(F)F)n4)nc(N)c32)nc1 (stereo not shown) [Example 118A, 6-(4-Amino-5-cyclopropyl-6-oxo-2-(8-(3,3,4,4,4-pentafluorobutyl)-[1,2,4]triazolo[1,5-a]pyrazin-6-yl)-6,7-dihydro-5H-pyrrolo[2,3-d]pyrimidin-5-yl)nicotinonitrile]
18 | 139 | CC1(c2ccc(O)cn2)C(=O)Nc2nc(-c3cn4ncnc4c(CCC(F)(F)C(F)(F)F)n3)nc(N)c21 (stereo not shown) [Example 110A, 4-Amino-5-(5-hydroxypyridin-2-yl)-5-methyl-2-(8-(3,3,4,4,4-pentafluorobutyl)-[1,2,4]triazolo [1,5-a]pyrazin-6-yl)-5,7-dihydro-6H-pyrrolo [2,3-d]pyrimidin-6-one]
19 | 36.6 | Cc1nc2c(CCC(F)(F)C(F)(F)F)nc(-c3nc(N)c4c(n3)NC(=O)C4(C)c3ccc(Cl)c(F)c3)cn2n1 (stereo not shown) [Example 90B, 4-amino-5-(4-chloro-3-fluorophenyl)-5-methyl-2-(2-methyl-8-(3,3,4,4,4-pentafluorobutyl)-[1,2,4]triazolo[1,5-a]pyrazin-6-yl)-5H-pyrrolo[2,3-d]pyrimidin-6(7H)-one]
20 | 63.2 | CCCc1nc(-c2nc(N)c3c(n2)NC(=O)[C@@]3(C)c2ccc(F)cc2)cn2ncnc12 [Example 52A, (S)-4-amino-5-(4-fluorophenyl)-5-methyl-2-(8-propyl-[1,2,4]triazolo[1,5-a]pyrazin-6-yl)-5,7-dihydro-6H-pyrrolo[2,3-d]pyrimidin-6-one]
21 | 384 | CC1(c2ccc(Cl)cn2)C(=O)Nc2nc(-c3cn4ncnc4c(CCC(F)(F)C(F)(F)F)n3)ncc21 (stereo not shown) [Example 175A, 5-(5-chloropyridin-2-yl)-5-methyl-2-(8-(3,3,4,4,4-pentafluorobutyl)-[1,2,4]triazolo[1,5-a]pyrazin-6-yl)-5H-pyrrolo[2,3-d]pyrimidin-6(7H)-one]

same assay, conditions: CHO-K1/sGC cells, 1 hr at 37° C., cGMP by HTRF; presence or absence of 1 μM DETA-NO not given; read-out: % Act. (percent activation relative to maximum cGMP production of Compound A = 100%)

Row | Emax [%] | Compound
22 | 70 | CC1(c2ccc(O)cn2)C(=O)Nc2nc(-c3cn4ncnc4c(CCC(F)(F)C(F)(F)F)n3)nc(N)c21 (stereo not shown) [Example 110A, 4-Amino-5-(5-hydroxypyridin-2-yl)-5-methyl-2-(8-(3,3,4,4,4-pentafluorobutyl)-[1,2,4]triazolo [1,5-a]pyrazin-6-yl)-5,7-dihydro-6H-pyrrolo [2,3-d]pyrimidin-6-one]
